# Article PMC10563396, “Anti-Inflammatory Role of TRPV4 in Human Macrophages” (ImmunoHorizons, 2023)
# Molecular target: TRPV4 (Homo sapiens, UniProt Q9HBA0)
# Assay: fura […] Ca2+ imaging dose response in human primary monocyte-derived macrophages (endogenous TRPV4); response reduced by TRPV4 siRNA knockdown; EC50 […] (GM-CSF) and […] (M-CSF)
# Type: cell-based
# Sequence of TRPV4 (Q9HBA0 whole entry): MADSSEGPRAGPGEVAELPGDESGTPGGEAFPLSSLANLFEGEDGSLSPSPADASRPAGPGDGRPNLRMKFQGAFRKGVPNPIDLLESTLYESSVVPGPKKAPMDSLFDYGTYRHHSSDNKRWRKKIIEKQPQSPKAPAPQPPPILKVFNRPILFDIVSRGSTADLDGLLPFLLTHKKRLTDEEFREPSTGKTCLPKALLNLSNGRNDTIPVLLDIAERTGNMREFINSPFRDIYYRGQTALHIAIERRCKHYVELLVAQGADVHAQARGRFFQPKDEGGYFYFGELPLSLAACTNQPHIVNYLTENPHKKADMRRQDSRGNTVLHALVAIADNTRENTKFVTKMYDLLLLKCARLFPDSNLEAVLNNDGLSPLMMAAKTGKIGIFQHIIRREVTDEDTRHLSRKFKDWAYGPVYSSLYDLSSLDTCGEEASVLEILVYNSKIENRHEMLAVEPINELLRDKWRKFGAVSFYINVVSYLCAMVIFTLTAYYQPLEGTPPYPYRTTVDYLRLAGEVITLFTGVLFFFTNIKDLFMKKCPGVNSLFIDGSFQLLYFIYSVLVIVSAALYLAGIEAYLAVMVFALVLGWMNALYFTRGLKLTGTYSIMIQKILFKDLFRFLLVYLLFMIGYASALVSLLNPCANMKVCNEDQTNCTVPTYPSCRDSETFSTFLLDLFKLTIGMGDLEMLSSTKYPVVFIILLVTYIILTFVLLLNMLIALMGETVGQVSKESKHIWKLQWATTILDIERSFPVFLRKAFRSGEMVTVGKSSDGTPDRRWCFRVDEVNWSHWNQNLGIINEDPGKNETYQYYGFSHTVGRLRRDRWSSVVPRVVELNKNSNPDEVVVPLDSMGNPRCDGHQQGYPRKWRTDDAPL
structure (smiles),measurement,value
CC(C)C[C@H](NC(=O)c1cc2ccccc2s1)C(=O)N1CCN(C(=O)[C@H](CO)NS(=O)(=O)c2ccc(Cl)cc2Cl)CC1 [GSK1016790A],EC50,580 nM
